Paper PMC5608406, “In vivo activation of latent HIV with a synthetic bryostatin analog effects both latent cell "kick" and "kill" in strategy for virus eradication” (PLoS Pathogens, 2017)

Legend:
primary CD4+ T cells = assay: Induction of CD69 expression in primary CD4+ T cells; format: cell-based, human; details: 24h
Description: Primary human cells from HIV seronegative individuals were cultured in “RF10 medium” consisting of RPMI 1640 medium supplemented with 10% fetal bovine serum (FBS, Omega Scientific), 100 U/mL of penicillin, and 100 μg/mL of streptomycin (Invitrogen). PBMCs were isolated using Ficoll-Paque Plus separation (GE Healthcare). Primary CD4+ T cells were separated from PBMCs by negative immunomagnetic selection using the CD4+ T cell Isolation Kit (Miltenyi Biotec) according to the manufacturer’s instructions. Cells were then exposed to compound for 24 hours before staining and flow cytometric analysis of CD69 levels. Compound incubations were performed by seeding 10^5 cells/well in 100 μL of RF10 media containing the appropriate concentration of compound in wells of a v-bottomed 96-well plate. Bryostatin 1 (Tocris bioscience) and Prostratin (LC Laboratories) were obtained commercially, and bryologs or prostratin analogs were synthesized as previously described.
For human PBMC CD69 induction experiments, cells were stained with CD69-ECD (Beckman Coulter 6607110). During staining, cells were incubated at 4 °C for 20 minutes, washed with 2% FBS in PBS, and then resuspended in 2% paraformaldehyde. Stained samples were stored at 4 °C.
Flow cytometry samples were analyzed using a Cytomics FC 500 (Beckman Coulter) or a LSR Fortessa (BD Biosciences) flow cytometer. Data were analyzed using FlowJo (v7) software.

murine splenocytes = assay: In vivo bioactivity (CD69/CD25 in splenocytes) in C57/bl6 mice; details: intraperitoneal injection, 24h post-injection, maximum over ascending doses
Description: C57/bl6 mice were obtained from the UCLA Department of Radiation Oncology. Compounds were suspended in DMSO and then further diluted in RF10 media to produce a final volume of 500 μL (containing a maximum 4% DMSO). These 500 μL volumes were administered to mice by intraperitoneal injection. Mice were monitored for acute toxicities and then sacrificed at the indicated times. Spleens were removed and disaggregated using a steel mesh, and then filtered through a 40 μm filter to produce a single-cell suspension. The resultant splenocytes were then stained for flow cytometry to analyze surface expression of relevant markers.
During standard flow cytometry staining, samples of 10^5 cells were suspended in 50 μL of a 1:1 dilution of phosphate buffered saline (PBS):Human AB serum (Sigma). Staining of C57/bl6 mouse splenocytes was performed by adding the following anti-mouse fluorescent conjugated antibodies: CD3-Fluorescein isothiocyanate (FITC, eBioscience 11-0032-82); CD69-Phycoerythrin (PE, eBioscience 12-0691-83); and CD4-Allophycocyanin (APC, eBioscience 17-0041-83). In some experiments CD4-APC was replaced with CD25-APC (eBioscience 17-0251-82) and CD4-Phycoerythrin Cyanin 7 (PC7, eBioscience 25-0041-82). For humanized mouse studies, PBMC and splenocytes from BLT mice were stained with anti-mouse CD45-Alexa 700 (Biolegend 103128) and the following anti-human antibodies: CD45-e450 (eBioscience 48-0459-42); CD3-APC-780 (eBioscience; 47-0038-42); CD4-V500 (BD biosciences; 560768); CD8-Peridinin chlorophyll protein (PerCP)-710 (eBioscience 46-0087-42); CD25-PE (Beckman IM0479U); CD69-APC (Biolegend 310910); CD14-PE-Cy7 (Biolegend 325618). Cells were separately stained for anti-human CD45 e450- (eBioscience 48-0459-42) and anti-HA-Biotin PE (Roche 12158167001) followed by a secondary Streptavidin, R-Phycoerythrin Conjugate (Invitrogen s866) stain. This two-step stain was performed by incubating 1-2x10^6 cells at 4°C for 20–30 min, washing with 2% FBS in PBS, then adding the secondary stain, incubating again at 4°C for 20–30 min, and washing with 2% FBS in PBS before fixation with 2% paraformaldehyde. In some experiments, cell death was also evaluated by GHOST Red 780 (Tonbo Biosciences 13–0865) or Zombie Yellow (Biolegend 423104) stains. For this procedure, 10^6 cells were suspended in 100 μL PBS, and then the Zombie yellow and GHOST Red 780 dyes added. Cells were incubated for 20 min at room temperature in the dark and then washed twice with 2% FBS in PBS. Cells were then fixed with 2% paraformaldehyde and incubated for 20 min in the dark. In some experiments cells were then washed with 2% FBS in PBS, resuspended in 1:1 PBS:Human AB serum and then stained for human CD45 and HA, CD3-PE-Cy5 (Biolegend 300310), CD4-ECD (Beckman 6604727), CD8 Per-CO710 (eBioscience 46-0087-42) and CD3-APC (Cell signaling 9602S) as described above.

[1] = phase I, ART-treated patients; cited from earlier work

SMILES | CD69 expression (primary CD4+ T cells) | CD4+ splenocytes expressing CD69 (murine splenocytes) | safety in patients [1]
CC(=O)O[C@@]12C[C@@H](C)[C@@]3(O)[C@@H](C=C(CO)C[C@]4(O)C(=O)C(C)=C[C@@H]34)[C@@H]1C2(C)C [Prostratin] | can each induce expression |  | 
CCC/C=C/C=C/C(=O)O[C@H]1/C(=C/C(=O)OC)C[C@H]2C[C@H]([C@@H](C)O)OC(=O)C[C@H](O)C[C@@H]3C[C@H](OC(C)=O)C(C)(C)[C@](O)(C[C@@H]4C/C(=C/C(=O)OC)C[C@H](/C=C/C(C)(C)[C@]1(O)O2)O4)O3 [bryostatin 1] | can each induce expression | approximately 60% | safe at low doses
